Experimental data reported in patent US20220160734A1, “TREATMENT OF FIBROIDS WITH VITAMIN D AND AN AGENT SUCH AS EPIGALLOCATECHIN GALLATE (EGCG)” (LO.LI. PHARMA S.R.L., priority 2019, published 2022).

Key:
[1] = system: human uterine fibroid cells; conditions: in vitro; cited from earlier work
[2] = system: collagen release in cultured fibroblasts; experiment: Collagen release in TGF-β1-stimulated fibroblasts, western blot; format: cell-based, human; conditions: Phase I, 18 days culture, 24 h TGF-β1 10 ng/ml, then 24 h treatment, vitamin D3 0.005 μg/ml, EGCG 0.03 mg/ml, FIG. 2
Excerpt: (§1) Anti-fibrotic properties of epigallocatechin gallate (EGCG) and vitamin D3 (alone or in combination) have been preliminary tested in human normal fibroblasts in 2D cultures. Human normal fibroblasts used in this experiment are Primary cell cultures. To discard any effect on fibroblast viability, proliferation and apoptosis were also investigated. Fibroblasts culture: DMEM, 10% FBS, 1% L-Glu, 1% Pen/strep for 18 days; Fibroblasts were allowed to grow in the above fibroblast culture for 18 days until reaching 50% confluence. Then, the fibrotic process was fostered by adding 10 ng/ml TGF-β1 (Peprotech, cat no. #100-21-10UG). 24 hours after addition of TGF-β1, fibroblasts were thoroughly washed with PBS, fresh fibroblast culture medium and the below formulas were added. Fibroblasts were then allowed to grow for an additional 24 hours.
Vitamin D3 (cholecalciferol, CAS-No. 67-97-0): 0.005 μg/ml in DMSO. Vitamin D3 was dissolved in DMSO and after that further dilutions were made in PBS. Essentially, the cells receive the same “dose” of DMSO, this allows a clean comparison of the test. In this case, DMSO 1:10000 was used;
EGCG (GREEN TEA DRY EXTRACT 95% POLYPHENOLS; CAS-No. 84650-60-2): 0.03 mg/ml in H2O;
combined treatment: EGCG 0.03 mg/ml+vitamin D3 0.005 μg/ml;
control: vehicle only (DMSO);
(§2) Fibronectin and collagen release were both measured in western blot for assessing the anti-fibrotic effect. […]
(§3) Fibronectin and collagen release from fibroblasts were analyzed at 24 hours after addition of EGCG or vitamin D3 in previously stimulated fibroblast, as described above. […]
Data are reported in FIGS. 3 A-B and 4 A-B and expressed as fold-decrease of OD-Units in respect to the control value, which was obtained for fibroblasts after 24 hours of stimulation with TGF-β1 (e.g. a decrease of 50% between two measurements would be referred to a “half-fold change”). Fold change is a measure describing how much a quantity changes between an original and a subsequent measurement. It is defined as the ratio between the two quantities; for quantities A and B, then the fold change of B with respect to A is B/A.

[3] = system: uterine fibroid tumors; conditions: mice; cited from earlier work
[4] = system: fibronectin release in cultured fibroblasts; experiment: Fibronectin release in TGF-β1-stimulated fibroblasts, western blot; format: cell-based, human; conditions: Phase I; 18 days culture, 24 h TGF-β1 10 ng/ml, then 24 h treatment; vitamin D3 0.005 μg/ml, EGCG 0.03 mg/ml; FIG. 1
Excerpt: as §1, with “24 hours after addition of TGF-β1, fibroblasts were thoroughly washed with PBS, fresh fibroblast culture medium and the below formulas were added. Fibroblasts were then allowed to grow for an additional 24 hours.” left out
as §2, §3
Data are reported in FIGS. 3 A-B and 4 A-B and expressed as fold-decrease of OD-Units in respect to the control value, which was obtained for fibroblasts after 24 hours of stimulation with TGF-β1 (e.g. a decrease of 50% between two measurements would be referred to a “half-fold change”). Fold change is a measure describing how much a quantity changes between an original and a subsequent measurement. […]

[5] = system: uterine fibroids; conditions: women with uterine fibroids after treatment with EGCG; cited from earlier work
[6] = system: human normal fibroblasts; experiment: Fibroblast proliferation, viability and morphology; conditions: Phase I; vitamin D3 0.005 μg/ml, EGCG 0.03 mg/ml; data not shown
Excerpt: as §1

[7] = system: uterine fibroids; conditions: animal models; cited from earlier work

Structure (SMILES) | apoptosis in human uterine fibroid cells [1] | uterine fibroid cell proliferation [1] | collagen release (production) [2] | volume of uterine fibroid tumors [3] | fibronectin release (production) [4] | reduction in the total fibroid volume [5] [%] | fibroblasts proliferation rate [6] | fibroblasts viability [6] | collagen release (production) ([2]; listed as Vitamin D) | size of uterine fibroids / uterine fibroid tumor growth [7]
O=C(O[C@@H]1Cc2c(O)cc(O)cc2O[C@@H]1c1cc(O)c(O)c(O)c1)c1cc(O)c(O)c(O)c1 [EGCG, epigallocatechin gallate] | induces apoptosis | inhibits proliferation | significantly reduces | reduces the volume | significantly reduces | 32.6 | does not significantly modify | does not significantly modify | – | –
C=C1CC[C@H](O)C/C1=C/C=C1\CCC[C@]2(C)[C@@H]([C@H](C)CCCC(C)C)CC[C@@H]12 [Vitamin D3, cholecalciferol] | – | reduces | significantly reducing | – | slightly increases | – | does not significantly modify | does not significantly modify | reduces | reduces
C=C1/C(=C\C=C2/CCC[C@]3(C)[C@@H]([C@H](C)CCCC(C)(C)O)CC[C@@H]23)C[C@@H](O)C[C@@H]1O [1,25-dihydroxyvitamin D] | – | inhibits | – | – | – | – | – | – | – | decreases the size
